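Following 48 hours of exposure in 96-well plates, responses at five concentrations were used to interpolate endpoints linearly. At the GI50, growth is halved.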 The source made the active and inactive calls. No stated cut-off is given here; in the data, active = GI50 up to about 1.1 µM and inactive = higher.
Columns and labels:
Assay in all cases: NCI-60 cell line screen, 48 h
LOX IMVI = test system: LOX IMVI
SK-MEL-5 = test system: SK-MEL-5
Hs-578T = test system: Hs-578T
T47D = test system: T47D
DU-145 = test system: DU-145
SF-295 = test system: SF-295
U-251 = test system: U-251
SN12C = test system: SN12C
K562 = test system: K562
NCI-H23 = test system: NCI-H23
NCI-H522 = test system: NCI-H522
UACC-257 = test system: UACC-257
RXF 393 = test system: RXF 393
A498 = test system: A498
HOP-92 = test system: HOP-92
BT-549 = test system: BT-549
HCT-116 = test system: HCT-116
M14 = test system: M14
KM12 = test system: KM12
HOP-62 = test system: HOP-62

Measured: GI50

CSc1nc(Cl)c2c(n1)Sc1nc3cc4c(cc3n1C2O)OCCO4 (stereo not given)
active: LOX IMVI < 0.0162 µM | SK-MEL-5 0.0703 µM | Hs-578T 0.295 µM | DU-145 0.124 µM | SF-295 0.379 µM | U-251 0.223 µM | SN12C 0.526 µM | K562 0.0318 µM | NCI-H23 0.39 µM | NCI-H522 0.0382 µM | RXF 393 0.354 µM | A498 0.708 µM | HOP-92 0.875 µM | BT-549 0.489 µM | HCT-116 0.0146 µM | M14 0.0951 µM | KM12 0.06 µM | HOP-62 0.419 µM
inactive: T47D 15.4 µM | UACC-257 11.1 µM

COc1ccc(-n2c(N)c(C#N)c(C#N)c2-c2ccco2)cc1
inactive: LOX IMVI > 100 µM | SK-MEL-5 78.5 µM | Hs-578T 39.7 µM | T47D 47.9 µM | DU-145 > 100 µM | SF-295 > 100 µM | U-251 > 100 µM | SN12C > 100 µM | K562 59.7 µM | NCI-H23 > 100 µM | NCI-H522 46.7 µM | UACC-257 > 100 µM | RXF 393 > 100 µM | A498 > 100 µM | HOP-92 16.8 µM | BT-549 9.23 µM | HCT-116 > 100 µM | M14 > 100 µM | KM12 > 100 µM | HOP-62 72.1 µM

O=c1c2ncn(CCCl)c2n(-c2ccccc2)c(=S)n1-c1ccccc1
inactive: LOX IMVI > 100 µM | SK-MEL-5 > 100 µM | Hs-578T 69.5 µM | T47D > 100 µM | DU-145 > 100 µM | SF-295 > 100 µM | U-251 > 100 µM | SN12C > 100 µM | K562 86.9 µM | NCI-H23 > 100 µM | NCI-H522 > 100 µM | UACC-257 > 100 µM | RXF 393 > 100 µM | A498 > 100 µM | HOP-92 > 100 µM | BT-549 > 100 µM | HCT-116 > 100 µM | M14 > 100 µM | KM12 > 100 µM | HOP-62 > 100 µM

Cc1c(C(=O)O)n2c(C)nnc2c2ccccc12
inactive: LOX IMVI > 100 µM | SK-MEL-5 > 100 µM | Hs-578T > 100 µM | T47D > 100 µM | DU-145 > 100 µM | SF-295 > 100 µM | U-251 > 100 µM | SN12C > 100 µM | K562 > 100 µM | NCI-H23 > 100 µM | NCI-H522 > 100 µM | UACC-257 > 100 µM | RXF 393 > 100 µM | A498 > 100 µM | HOP-92 > 100 µM | BT-549 > 100 µM | HCT-116 > 100 µM | M14 > 100 µM | KM12 > 100 µM | HOP-62 > 100 µM

COc1cc2c(cc1O)[C@@H]1Cc3c(cc(OC)c(OC)c3Oc3cc4c(cc3OC)CCN(C)[C@@H]4Cc3ccc(O)cc3)[C@H](C2)N1C
inactive: LOX IMVI 18.5 µM | SK-MEL-5 15.8 µM | Hs-578T 46 µM | T47D 36.1 µM | DU-145 > 100 µM | SF-295 46 µM | U-251 46.5 µM | SN12C > 71.1 µM | K562 20.3 µM | NCI-H23 > 100 µM | NCI-H522 27.7 µM | UACC-257 23.2 µM | RXF 393 2.1 µM | A498 37 µM | HOP-92 37.9 µM | BT-549 41.2 µM | HCT-116 48.1 µM | M14 18.2 µM | KM12 45.1 µM | HOP-62 > 95.5 µM

CCC(C#N)N(Cc1ccc(CN(C(=O)c2ccccc2)C(C#N)CC)cc1)C(=O)c1ccccc1 (stereo not given)
inactive: LOX IMVI 15.9 µM | SK-MEL-5 12.8 µM | Hs-578T 21.5 µM | T47D 9.02 µM | DU-145 28.6 µM | SF-295 17.6 µM | U-251 22.6 µM | SN12C 27.1 µM | K562 13.9 µM | NCI-H23 25.7 µM | NCI-H522 23 µM | UACC-257 16.6 µM | RXF 393 28.1 µM | A498 18.8 µM | HOP-92 13.2 µM | BT-549 27.5 µM | HCT-116 17.6 µM | M14 36.6 µM | KM12 21.7 µM | HOP-62 20.9 µM

CN(C)CC1CCC/C(=C\c2ccc(N(C)C)cc2)C1=O (stereo not given)
inactive: LOX IMVI 1.67 µM | SK-MEL-5 17.6 µM | Hs-578T 3.58 µM | T47D 2.25 µM | DU-145 17.1 µM | SF-295 18.2 µM | U-251 17 µM | SN12C 16.1 µM | K562 28.1 µM | NCI-H23 15.1 µM | NCI-H522 1.75 µM | UACC-257 13.5 µM | RXF 393 8.13 µM | A498 17.1 µM | HOP-92 3.33 µM | BT-549 16.2 µM | HCT-116 3.15 µM | M14 3.55 µM | KM12 1.44 µM | HOP-62 18.8 µM

COC(=O)c1ccccc1C1CN=NC12Cc1cc(C)ccc1C2=O (stereo not given)
inactive: LOX IMVI 36.4 µM | SK-MEL-5 > 100 µM | Hs-578T 49 µM | T47D > 100 µM | DU-145 > 100 µM | SF-295 > 100 µM | U-251 > 100 µM | SN12C > 100 µM | K562 86.9 µM | NCI-H23 > 100 µM | NCI-H522 63.8 µM | UACC-257 > 100 µM | RXF 393 > 100 µM | A498 > 100 µM | HOP-92 43.2 µM | BT-549 > 100 µM | HCT-116 > 100 µM | M14 > 100 µM | KM12 92.9 µM | HOP-62 > 100 µM

COC(=O)[C@H]1COC(=O)N1
inactive: LOX IMVI > 100 µM | SK-MEL-5 > 100 µM | Hs-578T > 100 µM | T47D > 100 µM | DU-145 > 100 µM | SF-295 > 100 µM | U-251 > 100 µM | SN12C > 100 µM | K562 > 100 µM | NCI-H23 > 100 µM | NCI-H522 > 100 µM | UACC-257 > 100 µM | RXF 393 > 100 µM | A498 > 100 µM | HOP-92 > 100 µM | BT-549 > 100 µM | HCT-116 > 100 µM | M14 > 100 µM | KM12 > 100 µM | HOP-62 > 100 µM

CC(Cl)CN1c2ccccc2Sc2ccc(Cl)cc21 (stereo not given)
inactive: LOX IMVI > 10 µM | SK-MEL-5 > 10 µM | Hs-578T > 10 µM | T47D > 10 µM | DU-145 > 10 µM | SF-295 > 10 µM | U-251 > 10 µM | SN12C > 10 µM | K562 > 10 µM | NCI-H23 > 10 µM | NCI-H522 > 10 µM | UACC-257 > 10 µM | RXF 393 > 10 µM | A498 > 10 µM | HOP-92 > 10 µM | BT-549 > 10 µM | HCT-116 > 10 µM | M14 > 10 µM | KM12 > 10 µM | HOP-62 > 10 µM

COc1cc(C2C3=C(COC3=O)OC(C)(C)Oc3cc4c(cc32)OCO4)cc(OC)c1O (stereo not given)
active: LOX IMVI 0.706 µM | SK-MEL-5 0.246 µM | T47D 0.498 µM | SF-295 0.232 µM | U-251 0.966 µM | K562 0.383 µM | NCI-H522 0.244 µM | RXF 393 0.122 µM | A498 1.04 µM | HOP-92 0.392 µM | HCT-116 0.548 µM | M14 1.09 µM | KM12 0.531 µM | HOP-62 0.791 µM
inactive: Hs-578T 1.56 µM | DU-145 1.39 µM | SN12C 2.79 µM | NCI-H23 1.86 µM | UACC-257 5.14 µM | BT-549 12.9 µM

CC(Br)C(=O)c1ccc2cc(Br)c3ccccc3c2c1 (stereo not given)
inactive: LOX IMVI 6.79 µM | SK-MEL-5 14 µM | Hs-578T 23.1 µM | T47D 11.9 µM | DU-145 16.5 µM | SF-295 16.4 µM | U-251 13.7 µM | SN12C 7.01 µM | K562 4.18 µM | NCI-H23 16 µM | NCI-H522 3.97 µM | UACC-257 16.9 µM | RXF 393 15.4 µM | A498 18.7 µM | HOP-92 16.4 µM | BT-549 15.1 µM | HCT-116 15.2 µM | M14 16.1 µM | KM12 17.2 µM | HOP-62 17.2 µM

C#CCOCC12C=CC(O1)C1COC(=O)C12 (stereo not given)
inactive: LOX IMVI > 100 µM | SK-MEL-5 > 100 µM | Hs-578T > 100 µM | T47D > 100 µM | DU-145 > 100 µM | SF-295 > 100 µM | U-251 > 100 µM | SN12C > 100 µM | K562 > 100 µM | NCI-H23 > 100 µM | NCI-H522 > 100 µM | UACC-257 > 100 µM | RXF 393 > 100 µM | A498 > 100 µM | HOP-92 7.14 µM | BT-549 > 100 µM | HCT-116 > 100 µM | M14 > 100 µM | KM12 > 100 µM | HOP-62 > 100 µM

CC(C)C1CCC(=O)CC1CCCCC1CC(=O)CC1O[Si](C)(C)C(C)(C)C (stereo not given)
inactive: LOX IMVI 2.84 µM | SK-MEL-5 3.05 µM | Hs-578T 3.03 µM | T47D 14.2 µM | DU-145 17 µM | SF-295 9.62 µM | U-251 2.32 µM | SN12C 5.5 µM | K562 2.76 µM | NCI-H23 15.5 µM | NCI-H522 2.1 µM | UACC-257 6.4 µM | RXF 393 4.67 µM | A498 8.09 µM | HOP-92 3.3 µM | BT-549 4.25 µM | HCT-116 3.18 µM | M14 6.1 µM | KM12 2.76 µM | HOP-62 7.06 µM

— ChEMBL document CHEMBL1201862, “PubChem BioAssay data set” (2004)
